Results published in patent publication US7172867B2, “Methods of testing for allergic diseases, and therapeutic agents for treating same” (priority 2002, dated 2007).
“Also recorded” adds a separate entry of the source. Like-named read-outs stand apart in the source and are kept apart here.

B1: IL-4: cytokine used for eosinophil activation (protein, UniProt P05112 25-153, looked up)
Interleukin-4: HKCDITLQEIIKTLNSLTEQKTLCTELTVTDIFAASKNTTEKETFCRAATVLRQFYSHHEKDTRCLGATAQQFHRHKQLIRFLKRLDRNLWGLAGLNSCPVKEANQSTLENFLERLKTIMREKYSKCSS

What was measured:
TINUR (Nurr1) [1] = assay: Mammalian two hybrid luciferase reporter system for TINUR ligand search (GAL4-TINUR LBD or full length, NIH3T3 cells, with or without RXRα); assay type: cell-based, human; conditions: LBD deletion mutant (ΔLBD)
TINUR (Nurr1) [2] = target: T1, TINUR (Nurr1) (Homo sapiens, UniProt P43354); assay: as above; assay type: cell-based; conditions: NIH3T3 luciferase, ◯ with concentration, X; for Full length Nurr1-ligand activity RXR(+): full length TINUR fused to GAL4, RXRα added; for Full length Nurr1-ligand activity RXR(−): full length TINUR fused to GAL4, without RXRα
T1 construct: expressed in transfected cells; host or cells: NIH3T3
Target sequence in this assay (P43354 whole entry, the tested form may be a part): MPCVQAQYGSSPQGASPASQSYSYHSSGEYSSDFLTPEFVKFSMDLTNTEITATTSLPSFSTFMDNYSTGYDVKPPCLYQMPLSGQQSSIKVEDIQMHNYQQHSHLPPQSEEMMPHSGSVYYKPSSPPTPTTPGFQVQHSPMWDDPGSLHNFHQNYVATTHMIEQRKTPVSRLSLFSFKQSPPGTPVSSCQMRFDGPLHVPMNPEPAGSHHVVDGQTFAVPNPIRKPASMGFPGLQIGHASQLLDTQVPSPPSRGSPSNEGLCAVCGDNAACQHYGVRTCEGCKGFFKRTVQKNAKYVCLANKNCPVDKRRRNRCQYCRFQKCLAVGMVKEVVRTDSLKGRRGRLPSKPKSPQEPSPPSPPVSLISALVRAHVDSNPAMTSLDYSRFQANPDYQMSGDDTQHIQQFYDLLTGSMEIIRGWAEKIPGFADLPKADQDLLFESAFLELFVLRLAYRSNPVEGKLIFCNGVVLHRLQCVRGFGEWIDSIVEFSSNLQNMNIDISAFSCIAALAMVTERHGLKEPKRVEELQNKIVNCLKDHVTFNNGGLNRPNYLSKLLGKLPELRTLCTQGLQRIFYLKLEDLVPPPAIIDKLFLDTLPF

TINUR (Nurr1) [3] = target: T1, TINUR (Nurr1); assay: as above; assay type: cell-based; conditions: for Nurr1 LBD-ligand activity RXR(+): TINUR LBD fused to GAL4, RXRα added, NIH3T3 luciferase, ◯ with concentration, X
Procedure: (§1) A TR3 or TINUR ligand-binding site is inserted into X, and the full-length retinoic acid X receptor (RXR) α gene is inserted into Y. These constructs are transfected into NIH3T3 cells, and the activity of induced luciferase is measured.
A plasmid comprising the TINUR ligand binding domain sequence inserted into pBIND, and a luciferase reporter plasmid comprising a GAL4 binding site, were co-transfected into NIH3T3 cells. Luciferase activity was measured automatically. At the same time, activity measurement was also carried out by adding retinoic acid X receptor (RXR) α-gene, a transcription factor that forms a heterodimer with TINUR. Low molecular weight substances can also be added to this system to screen using transcriptional enhancement activity.
Like TR3 expression, TINUR expression is enhanced in activated eosinophils. Ligands existing in vivo may exist in sites where nuclear receptors are highly expressed. […] Ligands of the nuclear receptor subfamily are assumed to have structural redundancy. Therefore, derivatives similar to TR3 activator compounds were added, and enhancement of transcriptional activity was investigated.
(§2) Thus, it was implied that prostaglandin A2 functions by acting on the LBD region of the nuclear receptor.
Target sequence in this assay (P43354 360-598): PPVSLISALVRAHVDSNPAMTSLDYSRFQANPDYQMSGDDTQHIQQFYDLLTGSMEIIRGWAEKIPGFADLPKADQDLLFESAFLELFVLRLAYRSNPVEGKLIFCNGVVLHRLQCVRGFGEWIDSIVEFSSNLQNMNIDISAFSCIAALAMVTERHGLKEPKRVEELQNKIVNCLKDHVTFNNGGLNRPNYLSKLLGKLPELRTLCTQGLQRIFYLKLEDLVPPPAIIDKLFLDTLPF

TINUR LBD = target: T2, TINUR LBD (Homo sapiens, UniProt P43354); assay: Binding to TINUR GST-LBD by BIAcor S51; conditions: BIAcor S51, comparison with GST as a base
T2 construct: TR3 GST-LBD and TINUR GST-LBD were respectively expressed in E. coli, and then purified; made in house; host or cells: E. coli
T2 sequence (P43354 360-595 limits assumed): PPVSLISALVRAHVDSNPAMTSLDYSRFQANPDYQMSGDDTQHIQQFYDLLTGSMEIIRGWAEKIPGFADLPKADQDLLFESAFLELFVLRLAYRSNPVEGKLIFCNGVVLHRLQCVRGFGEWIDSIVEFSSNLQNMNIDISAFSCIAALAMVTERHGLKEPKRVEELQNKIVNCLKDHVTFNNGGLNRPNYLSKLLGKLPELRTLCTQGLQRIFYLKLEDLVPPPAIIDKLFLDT

TR3 (Nur77) [4] = target: T3, TR3 (Nur77) (Homo sapiens, UniProt P22736); assay: Mammalian two hybrid luciferase reporter system for TR3 ligand search (GAL4-TR3 LBD or full length, NIH3T3 cells, with or without RXRα); assay type: cell-based; conditions: for Full length Nur77-ligand activity RXR(+): full length TR3 fused to GAL4, RXRα added; for Full length Nur77-ligand activity RXR(+) / Full length Nur77-ligand activity RXR(−): NIH3T3 luciferase, ◯ with concentration, X; for Full length Nur77-ligand activity RXR(−): full length TR3 fused to GAL4, without RXRα
T3 construct: expressed in transfected cells; host or cells: NIH3T3

TR3 (Nur77) [5] = target: T3, TR3 (Nur77); assay: as above; assay type: cell-based; conditions: for Nur77 LBD-ligand activity RXR(+): TR3 LBD fused to GAL4, RXRα added, NIH3T3 luciferase, ◯ with concentration, X
Procedure: as §1
This was done to facilitate expression of a protein in which the DNA binding domains of TR3 and GAL4 were fused in frame. A plasmid comprising the TR3 ligand binding domain sequence inserted into pBIND, and a luciferase reporter plasmid comprising a GAL4 binding site, were co-transfected into NIH3T3 cells. Luciferase activity was measured automatically. At this time, activity was also measured by adding a retinoic acid X receptor (RXR) α-gene, which is a transcription factor that forms a heterodimer with TR3. By further adding low molecular weight substances to this system, transcriptional enhancement activity can also be used for screening.
TR3 expression is enhanced in activated eosinophils, such as in the peripheral blood of atopic dermatitis patients. Ligands existing in vivo may exist in sites where nuclear receptors are highly expressed. Therefore, small molecule lipid-soluble mediators considered to be produced under such conditions were added to the assay system, and evaluated based on their ability to enhance luciferase activity. […] In this manner, the method established by the present inventors paved the way for the high throughput discovery of native and synthetic TR3 ligands.
as §2

TR3 LBD = target: T4, TR3 LBD (Homo sapiens, UniProt P22736); assay: Binding to TR3 GST-LBD by BIAcor S51; conditions: BIAcor S51, comparison with GST as a base
T4 construct: TR3 GST-LBD and TINUR GST-LBD were respectively expressed in E. coli, and then purified; made in house; host or cells: E. coli
T4 sequence (P22736 360-595 limits assumed): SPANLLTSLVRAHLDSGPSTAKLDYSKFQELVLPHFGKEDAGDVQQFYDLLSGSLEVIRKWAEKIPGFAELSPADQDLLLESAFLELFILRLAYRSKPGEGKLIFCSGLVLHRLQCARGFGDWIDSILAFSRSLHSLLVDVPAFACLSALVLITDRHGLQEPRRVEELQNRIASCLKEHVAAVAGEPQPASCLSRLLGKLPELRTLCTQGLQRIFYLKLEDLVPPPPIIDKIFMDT
From the text: In the present invention, a biosensor utilizing the phenomenon of surface plasmon resonance may also be used to detect or measure the bound compound. […] Therefore, biosensors such as BIACORE can be used to evaluate binding between the TR3 or TINUR protein and a test compound.

[6] = test system: TR3 expression in peripheral blood eosinophils; assay: TR3 expression induction in cultured peripheral blood eosinophils; assay type: cell-based, human; conditions: cultured peripheral blood eosinophils from healthy subjects, one to three-hour treatment

| Molecule | transcriptional activity with TINUR gene completely lacking an LBD region (TINUR (Nurr1) [1]) | Full length Nurr1-ligand activity RXR(+) (TINUR (Nurr1) [2]) | Full length Nurr1-ligand activity RXR(−) (TINUR (Nurr1) [2]) | activity of activating TINUR transcription (luciferase reporter), in words (TINUR (Nurr1) [3]) | Nurr1 LBD-ligand activity RXR(+) (TINUR (Nurr1) [3]) | binding to the LBD of TINUR (TINUR LBD) | transcriptional activity with TR3 gene completely lacking an LBD region (TR3 (Nur77) [4]; LBD deletion mutant (ΔLBD)) | Full length Nur77-ligand activity RXR(+) (TR3 (Nur77) [4]) | Full length Nur77-ligand activity RXR(−) (TR3 (Nur77) [4]) | activity of enhancing the transcription-activating ability of TR3 (luciferase reporter), in words (TR3 (Nur77) [5]) | Nur77 LBD-ligand activity RXR(+) (TR3 (Nur77) [5]) | binding to the LBD of TR3 (TR3 LBD) | activity of activating TINUR transcription (luciferase reporter), in words (TINUR (Nurr1) [3]; listed as 15-deoxy-delta 12,14-prostaglandin J2) | TR3 induction [6] |
| --- | --- | --- | --- | --- | --- | --- | --- | --- | --- | --- | --- | --- | --- | --- |
| CCCCC[C@H](O)/C=C/[C@H]1C=CC(=O)[C@@H]1C/C=C\CCCC(=O)O [Prostaglandin A2] | suppressed | ◯10 μM | ◯10 μM | ligand activators; also recorded: found to comprise the activity of activating TINUR transcription | ◯10 μM | detected | suppressed | ◯10 μM | ◯10 μM | ligand activators for TR3; also recorded: the activity of enhancing the transcription-activating ability of TR3 was found | ◯10 μM | detected | – | – |
| CCCCC/C=C/C=C1/C=CC(=O)[C@@H]1CCCCCCC(=O)O [15-deoxy-Δ^12.14_Prostaglandin A1] | – | – | – | – | – | – | – | ◯30 μM | – | ligand activators for TR3 | ◯30 μM | – | – | – |
| CCCCC[C@H](O)C/C=C1/C(=O)C=C[C@@H]1C/C=C\CCCC(=O)O [Δ12-Prostaglandin J2] | – | – | – | – | – | – | – | – | – | the activity of enhancing the transcription-activating ability of TR3 was found | – | – | – | – |
| CCCCC[C@@](C)(O)/C=C/[C@H]1C=CC(=O)[C@@H]1C/C=C\CCCC(=O)O [15(R)-15-methylProstaglandin A2] | – | ◯10 μM | – | ligand activators; also recorded: found to comprise the activity of activating TINUR transcription | ◯10 μM | – | – | ◯10 μM | ◯10 μM | ligand activators for TR3; also recorded: the activity of enhancing the transcription-activating ability of TR3 was found | ◯10 μM | – | – | – |
| CCCCC[C@@H](O)/C=C/[C@H]1C=CC(=O)[C@@H]1CCCCCCC(=O)O [15-epiProstaglandin A1] | – | – | – | ligand activators; also recorded: found to comprise the activity of activating TINUR transcription | ◯10 μM | – | – | ◯10 μM | ◯10 μM | ligand activators for TR3; also recorded: the activity of enhancing the transcription-activating ability of TR3 was found | ◯10 μM | – | – | – |
| CCCCC/C=C/C=C1/C(=O)C=C[C@@H]1C/C=C\CCCC(=O)O [15-deoxy-Δ^12.14_Prostaglandin J2] | – | – | – | – | ◯10 μM | – | – | ◯10 μM | ◯10 μM | ligand activators for TR3 | – | – | ligand activators; also recorded: found to comprise the activity of activating TINUR transcription | – |
| CCCCC[C@H](O)/C=C/[C@H]1C=CC(=O)[C@@H]1CCCCCCC(=O)O [Prostaglandin A1] | – | ◯10 μM | ◯10 μM | ligand activators; also recorded: found to comprise the activity of activating TINUR transcription | ◯10 μM | detected | – | ◯10 μM | ◯10 μM | ligand activators for TR3; also recorded: the activity of enhancing the transcription-activating ability of TR3 was found | ◯10 μM | detected | – | – |
| IL-5: cytokine used for eosinophil activation | – | – | – | – | – | – | – | – | – | – | – | – | – | did not lead to TR3 induction |
| CCCCC[C@H](O)/C=C/[C@H]1C=CC(=O)[C@H]1CCCCCCC(=O)O [8-isoProstaglandin A1] | – | ◯10 μM | – | ligand activators; also recorded: found to comprise the activity of activating TINUR transcription | ◯10 μM | – | – | ◯ 3 μM | – | ligand activators for TR3 | ◯10 μM | – | – | – |
| O=C(O)CCC/C=C\C[C@H]1C(=O)C=C[C@@H]1/C=C/[C@@H](O)COc1ccccc1 [16-phenoxytetranorProstaglandin A2] | – | ◯30 μM | ◯30 μM | ligand activators; also recorded: found to comprise the activity of activating TINUR transcription | ◯10 μM | – | – | – | ◯30 μM | ligand activators for TR3 | – | – | – | – |
| O=C(O)CCC/C=C\C[C@H]1C(=O)C=C[C@@H]1/C=C/[C@@H](O)CCc1ccccc1 [17-phenyl trinorProstaglandin A2] | – | ◯10 μM | – | ligand activators; also recorded: found to comprise the activity of activating TINUR transcription | ◯10 μM | – | – | ◯10 μM | – | ligand activators for TR3 | ◯10 μM | – | – | – |
| B1 | – | – | – | – | – | – | – | – | – | – | – | – | – | did not lead to TR3 induction |
